The subject of the experiment is luciferase transgenic rat-derived oral mucosal cell sheet. Nature of the experiment: Residual ATP level in luciferase transgenic rat-derived oral mucosal cell sheet after preservation and post-preservation culture. It is filed as cell-based. To be noted: tBHQ in HBSS (1 μM, 10 μM, 100 μM). The procedure:
An oral tissue of a luciferase transgenic rat (Hakamata Y, Murakami T, Kobayashi E., Transplantation 2006; 81(8): 1179-1184) was provided by Dr. Eiji Kobayashi in the Division of Development of Advanced Treatment, Jichi Medical University. The oral tissue was washed twice with DMEM (Gibco) supplemented with 1% antibiotics and antimycotics (AbAm, Gibco). The washed tissue was immersed in a solution of dispase I (1,000 PU/ml) in DMEM supplemented with 1% AbAm at 4° C. for 4 hours. After the dispase treatment, the tissue was transferred into a 0.02% EDTA solution (nacalai tesque), immersed therein at room temperature for 2 minutes, and washed twice with PBS. […]
The ATP level in a cell sheet correlates with the viability of the cell sheet. The ATP levels in a cell sheet before preservation, after preservation and after post-preservation culture were measured as an indicator of the viability of the cell sheet. […] After this, the 96-well plate was set in a luminescence microplate reader Centro LB960 (Berthold Technologies GmbH & Co. KG), and according to the device settings of the microplate reader, addition of luciferin (final concentration; 0.19 mg/ml) and measurement of the ATP level were conducted. The measurement temperature was 4° C., the single reading time was 2 seconds, and the total reading time was 12 minutes. […]

On to `CC(C)(C)c1cc(O)ccc1O` [tBHQ, tert-butylhydroquinone], for which the “residual ATP level after 7 days of preservation compared with HBSS without additive” value is on record as “higher”.

(Values after US20150351380A1, “TISSUE-PRESERVING LIQUID AND TISSUE-PRESERVING METHOD” (OSAKA UNIVERSITY, priority 2012, published 2015).)
